The values that follow come from patent publication US20090186838A1, “Amphotericin Derivatives” (Eidgenössische Technische Hochschule Zürich, priority 2006, published 2009).

For one test, the system named is DSY-294 C. albican CI. The test is described as follows: MIC determination in Candida strain DSY-294. The format is cell-based, Candida albicans. The following applies: Candida albicans. As to the method:
(§1) In Vitro Antifungal Activity. MIC values for various strains were determined in accordance with the standard protocol from the National Committee of Clinical Laboratory Standards but using YEPD liquid medium instead of RPMI-1640 medium (National Committee of Clinical Laboratory Standards (Reference Method for Broth Dilution Antifungal Susceptibility Testing of Yeast, M27-A2, Approved Standard-Second Edition, Volume 22, Number 15, 1995). AmB was used as a reference. The strains were cultivated overnight in 5 mL YEPD liquid medium at 30 to 37° C. (30° C. for the strain BY4741; 37° C. for the strain DSY1764) with constant shaking. The saturated cultures were diluted to an ODB600 of 0.1 (3×10P^7 cells/mL). Using 24 wells plate, each well was prepared by adding 1% (12 μL) of DMSO solution of the tested polyene macrolide with 1% (12 μL) yeast cells solution and completed with YEPD (1.176 mL). The plates were sealed with Parafilm and then incubated for 18 to 36 hours at 30 to 37° C. (18 hours at 30° C. for the strain BY4741; 36 hours at 37° C. for the strain DSY1764). The optical density was read at 600 nm using 1.5 mL cuvettes. The MIC value was defined as the drug concentration needed to inhibit growth, less than 5% compared to a drug-free culture.
(§2) MIC values of the polyene macrolides 3, 9 and 10 (Diamine-AmB and its ester and diamide derivative, respectively) in various Candida strains including an AmB-resistant strain C. albicans (DSY1764, with the genotype erg3AΔ::hisG/erg3BΔ::hisG erg11Δ::hisG/erg11Δ::hisG-URA3-hisG) were determined.

For another test, the system named is DSY-296 C. albican CI. The experiment in a line: MIC determination in Candida strain DSY-296. The format is cell-based, Candida albicans. The following applies: Candida albicans. Here is the method:
as §1, §2

Test [1] relates to Saccharomyces cerevisiae wild type BY4741. The test is described as follows: MIC determination in Saccharomyces cerevisiae wild type BY4741. It is filed as cell-based. The settings on record: for MIC: read-out: MIC; for times more active than AmB (MIC): relative to AmB. Here is the method:
as §1
MIC values of various polyene macrolides of the invention in Saccharomyces cerevisiae wild type BY4741, a derivative of S288C, (with AmB as a reference) were determined as described hereinabove.
Based on the remarkable performance observed with the Diamine-AmB conjugate similar modifications of the aminosugar moiety were made on other polyene macrolides, such as for example Nystatin (1b) and Pimaricin (1c). The antifungal activity of these nystatin and pimaricin conjugates bearing two aminopropyl side chains was measured using Saccharomyces cerevisiae wild type BY4741.

Test [2] relates to DSY-1764 C. albican mutant erg3/11 (AmB-resistant strain). The test is described as follows: MIC determination in AmB-resistant Candida strain DSY-1764. The format is cell-based, Candida albicans. The settings on record: Candida albicans, 36 h. As to the method: as §1, §2
Test [3] in a line: K+ efflux assay, ergosterol containing vesicles. The settings on record: lower concentration, 0.1 μM (FIG. 3a,c,e,g). As to the method:
(§3) FIG. 3. K^+ efflux from vesicles (LUVET100) prepared from […] (POPC) (solid line) or POPC with sterols (dotted line) for ergosterol and (broken line) for cholesterol caused by AmB (1a) (FIGS. 3a,b) and AmB diamine 3 (FIG. 3c,d), AmB diamine ester 9 (FIG. 3e,f) and AmB diamine amide 10 (FIG. 3g,h), added in DMSO to a suspension of vesicles to give final concentrations of 0.1 μM (FIG. 3a,c,e,g) and 1.0 μM (FIG. 3b,d,f,h).
K+ efflux assay. The K^+ efflux measurements were made following a previously described procedure (Zumbuehl, A. et al., Angew. Chem. Int. Ed. 2004, 43, 5181-5185; Zumbuehl, A. et al., Org. Lett. 2004, 6, 3683-3686). The appropriate liposome suspensions were prepared using POPC, cholesterol and ergosterol. Then the liposomes were sized by extrusion through two 400 nm, 200 nm, and finally 100 nm pore size membrane. The resultant “100 nm” unilamellar liposomes were dialyzed against 600 mL of 150 mM NaCl, 5 mM HEPES (pH 7.4) buffer. After, the suspension was diluted with 150 mM NaCl, 5 mM HEPES (pH 7.4) buffer to 1 mM overall lipid concentration (phospholipids+sterols). For each efflux measurement 10 mL of this liposome suspension was placed in a small beaker. Potentiometric measurements were performed with a 16-channel electrode monitor in magnetically stirred solutions at ambient temperature. The reference electrode was a Metrohm double junction Ag/AgCl reference electrode with 3 M KCl as reference electrolyte and 1 M LiOAc as bridge electrolyte. […] The resulting reading (taken after 0.5 h) was used to quantify the 100% K+-release.
As described hereinbefore differential interaction between ergosterol found in fungal membranes and cholesterol in mammalian cells is considered the basis for the selectivity of AmB (1a) as an antifungal agent. The preferential stabilization of ion channel formation in the membrane by ergosterol ultimately results in electrolyte leakage which can be conveniently measured by K^+ efflux from sterol containing vesicles. […]

Test [4] concerns DSY-654 C. albican mutant cdr1/2. The experiment in a line: MIC determination in Candida strain DSY-654. It is filed as cell-based, Candida albicans. The following applies: Candida albicans. Here is the method: as §1, §2
Test [5] can be described thus: K+ efflux assay, cholesterol containing vesicles. The settings on record: for K+ efflux with cholesterol-containing vesicles: high concentration, 1.0 μM (FIG. 3b,d,f,h), compared with AmB (1a); for K+ efflux with cholesterol containing vesicles: lower concentration, 0.1 μM (FIG. 3a,c,e,g). Here is the method: as §3
K+ efflux assay. The K^+ efflux measurements were made following a previously described procedure (Zumbuehl, A. et al., Angew. Chem. Int. Ed. 2004, 43, 5181-5185; Zumbuehl, A. et al., Org. Lett. 2004, 6, 3683-3686). The appropriate liposome suspensions were prepared using POPC, cholesterol and ergosterol. Then the liposomes were sized by extrusion through two 400 nm, 200 nm, and finally 100 nm pore size membrane. The resultant “100 nm” unilamellar liposomes were dialyzed against 600 mL of 150 mM NaCl, 5 mM HEPES (pH 7.4) buffer. After, the suspension was diluted with 150 mM NaCl, 5 mM HEPES (pH 7.4) buffer to 1 mM overall lipid concentration (phospholipids+sterols). For each efflux measurement 10 mL of this liposome suspension was placed in a small beaker. Potentiometric measurements were performed with a 16-channel electrode monitor in magnetically stirred solutions at ambient temperature. The reference electrode was a Metrohm double junction Ag/AgCl reference electrode with 3 M KCl as reference electrolyte and 1 M LiOAc as bridge electrolyte. After recording the amphotericin-induced potassium efflux, liposomes were lysed by adding sodium cholate (172 mg). The resulting reading (taken after 0.5 h) was used to quantify the 100% K+-release.
As described hereinbefore differential interaction between ergosterol found in fungal membranes and cholesterol in mammalian cells is considered the basis for the selectivity of AmB (1a) as an antifungal agent. The preferential stabilization of ion channel formation in the membrane by ergosterol ultimately results in electrolyte leakage which can be conveniently measured by K^+ efflux from sterol containing vesicles. To assess the interaction of the polyene macrolide derivatives of the invention with sterols, derivatives 3, 9 and 10 were examined in their ability to lead to K^+ efflux from large unilamellar vesicles (LUV) prepared from POPC (1-palmitoyl-2-oleoyl-sn-glycero-3-phosphocholine) admixed with sterols, mimicking conditions in natural biomembranes (FIG. 3). At high concentration (FIG. 3b,d,f,h), all compounds rapidly induce complete K^+ efflux from vesicles containing ergosterol (dotted line). […] This differentiation between ergosterol and cholesterol is consistent with the observation of reduced hemotoxicity of 3, 9 and 10.

The next test has as its system DSY-562 C. glabrata CI. The experiment in a line: MIC determination in Candida strain DSY-562. The format is cell-based. The settings on record: Nakaseomyces glabratus. Here is the method:
as §1, §2

The mark [6] stands for this setting: Saccharomyces cerevisiae wild type BY4741, YEPD liquid medium, 18 hours at 30° C.
Setting [7] is: Saccharomyces cerevisiae wild type BY4741.
[8] abbreviates: Saccharomyces cerevisiae, Table 3, strain not given, values as in Table 1 (S. cerevisiae BY4741).

Converted amounts (≈) assume the structure as drawn. Like-named read-outs stand apart in the source and are kept apart here.

As a reminder, the MIC is the lowest concentration that inhibits growth of the organism. Regarding `COC(=O)[C@H]1[C@@H]2C[C@@H](O[C@@H]3O[C@H](C)[C@@H](O)[C@H](N(CCCN)CCCN)[C@@H]3O)/C=C/C=C/C=C/C=C/C=C/C=C/C=C/[C@H](C)[C@@H](O)[C@@H](C)[C@H](C)OC(=O)C[C@H](O)C[C@H](O)CC[C@@H](O)[C@H](O)C[C@H](O)C[C@](O)(C[C@@H]1O)O2` [compound 9, N,N-Di-(3-aminopropyl)-AmB Methyl Ester], the MIC was 0.25 µM (≈ 0.263 µg/mL) against DSY-294 C. albican CI; 0.1 µM (≈ 0.105 µg/mL) against DSY-296 C. albican CI; 0.1 µM (≈ 0.105 µg/mL) in test [1] (setting [6]); 0.1 µM (≈ 0.105 µg/mL) in test [1] (setting [8]); 4 µM (≈ 4.21 µg/mL) in test [2]; 0.25 µM (≈ 0.263 µg/mL) in test [4]. For the same molecule, it took 0.25 µM (≈ 0.263 µg/mL) to inhibit growth in the test with DSY-562 C. glabrata CI (MIC). Moreover, in test [1] (setting [7]), the “times more active than AmB (MIC)” value came out at 3 times. Besides, the “K+ efflux with ergosterol containing vesicles” value in test [3] is reported as “observed exclusively with the ergosterol containing vesicles”. In addition, in test [5], the “K+ efflux with cholesterol-containing vesicles” value is on record as “significantly reduced efflux”. In addition, the “K+ efflux with cholesterol containing vesicles” value in test [5] is recorded as “indistinguishable from background”.
Regarding `C[C@@H]1[C@H](O)[C@@H](C)/C=C/C=C/C=C/C=C/C=C/C=C/C=C/[C@H](O[C@@H]2O[C@H](C)[C@@H](O)[C@H](N(CCCN)CCCN)[C@@H]2O)CC2O[C@](O)(C[C@@H](O)C[C@@H](O)[C@H](O)CC[C@@H](O)C[C@@H](O)CC(=O)O[C@H]1C)C[C@H](O)[C@H]2C(=O)NCCN` [compound 10, 16-(N′-(2-Aminoethyl)-carboxamide)-N,N-di-(3-aminopropyl)-AmB], the MIC against DSY-294 C. albican CI is 1 µM (≈ 1.08 µg/mL); in the test with DSY-296 C. albican CI it was 0.75 µM (≈ 0.81 µg/mL); in test [1] (setting [6]) it was 0.04 µM (≈ 0.0432 µg/mL); in test [1] (setting [8]), 0.04 µM (≈ 0.0432 µg/mL); in test [2] it was 4 µM (≈ 4.32 µg/mL); in the test with DSY-562 C. glabrata CI, 0.5 µM (≈ 0.54 µg/mL). For the same molecule, in test [1] (setting [7]), the “times more active than AmB (MIC)” value turned out to be 7.5 times. For the same molecule, the “K+ efflux with ergosterol containing vesicles” value in test [3] is listed as “observed exclusively with the ergosterol containing vesicles”. Also, the “K+ efflux with cholesterol-containing vesicles” value in test [5] is recorded as “significantly reduced efflux”. For the same molecule, the “K+ efflux with cholesterol containing vesicles” value in test [5] is given as “indistinguishable from background”.
